Laboratory results taken from patent publication US10640518B2, “Condensed heterocyclic compounds and pesticides” (Nissan Chemical Corporation, priority 2016, dated 2020).

Experiments:
Assay type in all cases: in vivo
[1] = system: Frankliniella occidentalis; test: Insecticidal activity on Frankliniella occidentalis (spray on kidney bean leaves); details: 48 h, 500 ppm solution sprayed (2.5 mg/cm^2), larvae on kidney bean leaves, 2 days after
Description: Test Example 4: Insecticidal Activity on Frankliniella occidentalis
In styrol cups having an inner diameter of 7 cm, wet filter paper was laid, kidney bean leaves cut into a 3 cm square were laid on the paper, and each leaf was inoculated with 20 larvae of Frankliniella occidentalis. 10% emulsifiable concentrates (or 10% wettable powders) of compounds of the present invention were diluted with water containing a spreader to obtain 500 ppm solutions. 2.5 ml of the solutions were sprayed from a rotary spray tower into the styrol cups (2.5 mg/cm^2). 2 days after, dead insects were counted, and the insect damage degree on kidney bean leaves was examined. The mortality was calculated by using the same equation as in Test Example 1. The insect damage degree was evaluated from the proportion of the area with insect damage on the leaves, as follows. 1: 0 to 20% insect damage, 2: 20 to 50% insect damage, 3: 50 to 70% insect damage, and 4: 70% or higher insect damage. The test was carried out in duplicate.

Rhipicephalus sanguineus = test: Test on the effect on Rhipicephalus sanguineus (thin film contact); details: 96 h, application dose 10 μg/cm^2, protonymphs, 4 days after the release, 25° C.
Description: Test Example 10: Test on the Effect on Rhipicephalus sanguineus
(§1) 3.5 mg of compounds of the present invention were diluted with 3.5 ml of acetone to obtain 1,000 ppm solutions. 350 μl of the solutions were applied to the bottoms and the side walls of glass containers with an inner wall surface area of 35 cm^2, and acetone was volatilized to prepare thin films of the compounds on the inner walls of the glass containers. Since the inner wall surface area of each glass container was 35 cm^2, the application dose was 10 μg/cm^2.
(§2) To each glass container, five protonymphs (male and female) of Rhipicephalus sanguineus were released, and the containers were covered with lids and placed in an incubator at 25° C. 4 days after the release of the ticks, dead ticks were counted, and the mortality was calculated by using the same equation as in Test Example 1.

Ctenocephalides felis = test: Test on the effect on Ctenocephalides felis (thin film contact); details: 96 h, application dose 10 μg/cm^2, adults, 4 days after the release, 25° C.
Description: Test Example 11: Test on the Effect on Ctenocephalides felis
as §1
as §2, with “adults” for “protonymphs”, “Ctenocephalides felis” for “Rhipicephalus sanguineus”, “fleas,” for “ticks,”, “fleas” for “ticks”

Spodoptera litura = test: Insecticidal test on Spodoptera litura (cabbage leaf soaking); details: 144 h, 500 ppm solution, cabbage leaves soaked, 3rd-instar larvae, 6 days after, 25° C.
Description: Test Example 3: Insecticidal Test on Spodoptera litura
(§3) 10% emulsifiable concentrates (or 10% wettable powders) of compounds of the present invention were diluted with water containing a spreader to obtain 500 ppm solutions. Leaves of cabbage were soaked in the solutions for about 10 seconds. After the soaking, the leaves were dried in air and placed in dishes. In each dish, five 3rd-instar larvae of Spodoptera litura were released, and the dishes were covered with lids and placed in an incubator at 25° C. 6 days after, dead insects in the dishes were counted, and the mortality was calculated by using the same equation as in Test Example 1. The test was carried out in duplicate.

Aedes albopictus = test: Insecticidal test on Aedes albopictus (larvae in well plate); details: final concentration 10 ppm, larvae one day after hatching, 3 days after, 25° C.
Description: Test Example 17: Insecticidal Test on Aedes albopictus
2 mg of compounds of the present invention were dissolved in 0.2 ml of dimethyl sulfoxide to prepare 1% (w/v) dimethyl sulfoxide solutions. 0.01 ml of the solutions were mixed with 0.99 ml of pure water to prepare 0.01% (w/v) solutions. To 0.3 ml plastic plates (Cellstar 96 well culture plates, manufactured by Greiner Bio-One International GmbH) as test plates, 0.09 ml of distilled water containing 30 larvae of Aedes albopictus one day after hatching was dropped, and 0.01 ml of the 0.01% (w/v) solutions were dropped so that the final concentration would be 10 ppm. The plates were covered with lids and placed in an incubator at 25° C. 3 days after, dead larvae were counted, and the mortality was calculated by using the same equation as in Test Example 1.

Plutella xylostella = test: Insecticidal test on Plutella xylostella (cabbage leaf soaking); details: 144 h, 500 ppm solution, cabbage leaves soaked, 3rd-instar larvae, 6 days after, 25° C.
Description: Test Example 2: Insecticidal Test on Plutella xylostella
as §3, with “Plutella xylostella” for “Spodoptera litura”

Reticulitermes speratus = test: Insecticidal test on Reticulitermes speratus (treated river sand); details: 240 h, 0.5 ml of 100 ppm solution on 10 g river sand, adults, 10 days after, 25° C.
Description: Test Example 15: Insecticidal Test on Reticulitermes speratus
10% emulsifiable concentrates of the compounds of the present invention were prepared. The emulsifiable concentrates were diluted with water to prepare 100 ppm solutions. 0.5 ml of the solutions were dropped on 10 g of river sand and mixed. In dishes having an inner diameter of 4 cm, 1% agar (2 cm square) was laid, and the treated river sand and a filter paper piece as bait were placed. Adults of Reticulitermes speratus were released in the dishes, and the dishes were placed in an incubator at 25° C. 10 days after, dead insects in the dishes were counted, and the mortality was calculated by using the same equation as in Test Example 1. The test was carried out in duplicate.

Myzus persicae = test: Insecticidal test on Myzus persicae (spray); details: 144 h, 500 ppm solution sprayed (2.5 mg/cm^2), apterous adults on cabbage leaves, 6 days after, 25° C.
Description: Test Example 5: Insecticidal Test on Myzus persicae
Wet absorbent cotton was laid on glass dishes having an inner diameter of 3 cm, and covered with leaves of cabbage cut into circles having a diameter of 3 cm, and 4 apterous adults of Myzus persicae were released. After a day, 10% emulsifiable concentrates (or 10% wettable powders) of compounds of the present invention were diluted with water containing a spreader to obtain 500 ppm solutions. The solutions were sprayed from a rotary spray tower (2.5 mg/cm^2), and the dishes were covered with lids and placed in an incubator at 25° C. 6 days after, dead insects were counted, and the mortality was calculated by using the same equation as in Test Example 1. The test was carried out in duplicate.

Nilaparvata lugens [2] = test: Systemic insecticidal test on Nilaparvata lugens (root dipping); details: 20 ppm solution, rice seedling roots dipped 7 days, 3rd-instar larvae, 6 days after the release
Description: Test Example 7: Systemic Insecticidal Test on Nilaparvata lugens
10% emulsifiable concentrates of compounds of the present invention were diluted with tap water to obtain 20 ppm solutions, and root of rice plug seedlings (at the 2-leaf stage) were dipped in the solutions. 7 days after, the rice seedlings were picked and put in test tubes, and in each tube, five 3rd-instar larvae of Nilaparvata luqens were released, and the tubes were capped with sponge and placed in an incubator at 25° C. 6 days after the release of the insects, dead insects were counted, the and the mortality was calculated by using the same equation as in Test Example 1. The test was carried out in duplicate.

Nilaparvata lugens [3] = test: Insecticidal test on Nilaparvata lugens (rice sheath soaking); details: 144 h, 500 ppm solution, rice sheaths soaked, 3rd-instar larvae, 6 days after, 25° C.
Description: Test Example 1: Insecticidal Test on Nilaparvata lugens
10% emulsifiable concentrates (or 10% wettable powders) of compounds of the present invention were diluted with water containing a spreader to obtain 500 ppm solutions. Rice sheaths were soaked in the solutions for about 10 seconds. After the soaking, the rice sheaths were dried in air and put in test tubes. In each tube, five 3rd-instar larvae of Nilaparvata luqgens were released, and the tubes were capped with sponge and placed in an incubator at 25° C. 6 days after, dead insects in the test tubes were counted, and the mortality was calculated in accordance with the following equation. The test was carried out in duplicate. Mortality (%)=(the number of dead insects/the number of released insects)×100)

Culex pipiens molestus = test: Insecticidal test on Culex pipiens molestus (larvae in well plate); details: 24 h
Description: Test Example 16: Insecticidal Test on Culex pipiens molestus
2 mg of compounds of the present invention were dissolved in 0.2 ml of dimethyl sulfoxide to prepare 1% (w/v) dimethyl sulfoxide solutions. The solutions were diluted with distilled water by a factor of 100 to prepare 100 ppm solutions. To 1.9 ml plastic plates (Cellstar 24 well plate, manufactured by Greiner Bio-One International GmbH) as test plates, 0.7 ml of water containing 10 to 30 larvae of Culex pipiens molestus one day after hatching, and 0.2 ml of an aqueous suspension of aquarium fish food (TetraMin manufactured by Spectrum Brands Japan) as bait, were dropped. 0.1 ml of the 100 ppm solutions were dropped, and the plates were placed in an incubator at 25° C. 1 day after, dead larvae were counted, and the mortality was calculated by using the same equation as in Test Example 1. The test was carried out in duplicate.

SMILES	mortality at 500 ppm [1] [%]	mortality at 10 µg/cm2 (Rhipicephalus sanguineus) [%]	mortality at 10 µg/cm2 (Ctenocephalides felis) [%]	mortality at 500 ppm (Spodoptera litura) [%]	mortality at 10 ppm (Aedes albopictus) [%]	mortality at 500 ppm (Plutella xylostella) [%]	mortality at 100 ppm (Reticulitermes speratus) [%]	mortality at 500 ppm (Myzus persicae) [%]	mortality at 20 ppm (Nilaparvata lugens [2]) [%]	mortality at 500 ppm (Nilaparvata lugens [3]) [%]	mortality at 100 ppm (Culex pipiens molestus) [%]
CCS(=O)(=O)c1c(-c2cn3cnc(C(F)(F)C(F)(F)F)cc3n2)nn2ccc(C(F)(F)F)cc12 [1-3-001a, 2-[3-(ethylsulfonyl)-5-(trifluoromethyl)pyrazolo[1,5-a]pyridin-2-yl]-7-(perfluoroethyl)imidazo[1,2-c]pyrimidine]	≥ 50	≥ 50	≥ 50	≥ 90	≥ 70	≥ 90	–	–	–	–	–
CCS(=O)(=O)c1c2ccc(C(F)(F)F)cc2nn1-c1nc2cc(C(F)(F)F)cnc2n1C [1-10-001a, 2-[3-(ethylsulfonyl)-6-(trifluoromethyl)-2H-indazol-2-yl]-3-methyl-6-(trifluoromethyl)-3H-imidazo[4,5-b]pyridine]	–	–	≥ 50	≥ 90	–	≥ 90	≥ 70	≥ 90	≥ 90	≥ 90	–
CCS(=O)(=O)c1c(-c2nc3cc(C(F)(F)F)cnc3n2C)nn2cc(Cl)ccc12 [1-1-001a, 2-[6-chloro-3-(ethylsulfonyl)pyrazolo[1,5-a]pyridin-2-yl]-3-methyl-6-(trifluoromethyl)-3H-imidazo[4,5-b]pyridine]	–	≥ 50	≥ 50	≥ 90	≥ 70	≥ 90	≥ 70	≥ 90	≥ 90	–	100
CCS(=O)(=O)c1c(-c2cn3nc(C(F)(F)C(F)(F)F)sc3n2)nn2ccc(C(F)(F)F)cc12 [1-5-001a, 6-[3-(ethylsulfonyl)-5-(trifluoromethyl)pyrazolo[1,5-a]pyridin-2-yl]-2-(perfluoroethyl)imidazo[2,1-b][1,3,4]thiadiazole]	–	≥ 50	≥ 50	≥ 90	≥ 70	≥ 90	–	–	–	–	–
CCS(=O)(=O)c1c(-c2nc3cc(C(F)(F)F)cnc3n2C)nn2cc(-n3ccc(C(F)(F)F)n3)ccc12 [1-1-003a, 2-[3-(ethylsulfonyl)-6-(3-(trifluoromethyl)-1H-pyrazol-1-yl)pyrazolo[1,5-a]pyridin-2-yl]-3-methyl-6-(trifluoromethyl)-3H-imidazo[4,5-b]pyridine]	–	–	≥ 50	≥ 90	≥ 70	≥ 90	–	–	–	–	–
